The results in this text go back to patent US7977322B2 (Vertex Pharmaceuticals Incorporated, priority 2004, dated 2011).

Each structure is given as a SMILES string.

For this experiment, the target named is T1, ΔF508-CFTR (Homo sapiens, UniProt P13569, DEL508-508).
T1 construct: expressed in transfected cells
Nature of the experiment: Membrane potential optical (FRET/VIPR) assay, identification of correction compounds. The experiment is classed as cell-based. The note with it: Table 3, assay not given; for Emax: read-out: % Activity / % Efficacy (relative efficacy). An outline of the steps:
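NIH3T3 mouse fibroblasts stably expressing ΔF508-CFTR were exposed to compound for 16 h at 37° C in serum-free medium, then loaded with DiSBAC2(3)/CC2-DMPE. After addition of 10 μM forskolin plus 20 μM genistein in Cl⁻-free gluconate bath (pH 7.4), depolarization from Cl⁻ efflux was read by FRET (VIPR II).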

T1 sequence (P13569 with tags, fused parts or gaps DEL508-508): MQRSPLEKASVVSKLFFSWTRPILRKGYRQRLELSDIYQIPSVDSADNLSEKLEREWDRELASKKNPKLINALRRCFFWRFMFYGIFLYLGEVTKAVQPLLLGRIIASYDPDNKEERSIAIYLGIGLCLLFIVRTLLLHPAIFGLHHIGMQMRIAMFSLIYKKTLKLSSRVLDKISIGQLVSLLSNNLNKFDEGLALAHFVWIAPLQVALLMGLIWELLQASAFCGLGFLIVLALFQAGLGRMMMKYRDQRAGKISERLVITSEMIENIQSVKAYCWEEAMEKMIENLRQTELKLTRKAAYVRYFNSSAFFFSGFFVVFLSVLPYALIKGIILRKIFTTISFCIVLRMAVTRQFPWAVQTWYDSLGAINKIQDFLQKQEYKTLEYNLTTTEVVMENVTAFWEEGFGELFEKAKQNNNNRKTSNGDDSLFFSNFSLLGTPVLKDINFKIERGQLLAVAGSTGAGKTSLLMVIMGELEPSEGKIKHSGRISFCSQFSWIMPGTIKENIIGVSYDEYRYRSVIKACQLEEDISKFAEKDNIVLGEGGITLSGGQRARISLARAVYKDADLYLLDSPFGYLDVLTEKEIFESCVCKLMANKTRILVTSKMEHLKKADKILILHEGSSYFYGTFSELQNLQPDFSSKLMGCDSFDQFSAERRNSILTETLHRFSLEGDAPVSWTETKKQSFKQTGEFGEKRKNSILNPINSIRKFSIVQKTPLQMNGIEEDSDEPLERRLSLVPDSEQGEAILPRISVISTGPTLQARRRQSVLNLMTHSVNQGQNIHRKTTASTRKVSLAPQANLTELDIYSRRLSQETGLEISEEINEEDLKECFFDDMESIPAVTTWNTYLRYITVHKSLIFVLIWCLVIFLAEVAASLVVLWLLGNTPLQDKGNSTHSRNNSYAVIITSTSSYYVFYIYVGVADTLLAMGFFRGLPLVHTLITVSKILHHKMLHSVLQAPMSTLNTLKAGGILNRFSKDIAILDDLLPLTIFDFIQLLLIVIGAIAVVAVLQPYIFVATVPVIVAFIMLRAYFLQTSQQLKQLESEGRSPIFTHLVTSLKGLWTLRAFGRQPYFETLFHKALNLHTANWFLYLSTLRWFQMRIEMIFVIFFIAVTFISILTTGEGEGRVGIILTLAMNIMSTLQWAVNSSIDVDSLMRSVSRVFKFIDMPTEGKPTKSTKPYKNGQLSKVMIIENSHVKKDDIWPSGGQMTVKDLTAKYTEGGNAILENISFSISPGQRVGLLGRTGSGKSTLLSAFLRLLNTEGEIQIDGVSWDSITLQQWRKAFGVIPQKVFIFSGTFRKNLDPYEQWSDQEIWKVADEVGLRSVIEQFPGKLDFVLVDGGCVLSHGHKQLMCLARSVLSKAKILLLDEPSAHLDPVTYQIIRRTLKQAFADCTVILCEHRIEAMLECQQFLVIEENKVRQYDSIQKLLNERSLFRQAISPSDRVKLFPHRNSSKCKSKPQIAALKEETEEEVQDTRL

Take `CC(C)[C@H](CO)NC(c1cnc(NC(=O)C2(c3ccc4c(c3)OCO4)CC2)s1)c1ccccc1C(F)(F)F` (stereo partly drawn) [Example 481]: the EC50 – broadly, the concentration giving half of the maximal effect – was below 10 µM and the Emax is above 100%.
The like results for `CC(C)C[C@H](CO)NC(c1cnc(NC(=O)C2(c3ccc4c(c3)OCO4)CC2)s1)c1ccccc1F` (stereo partly drawn) [Example 482] were, in that order, below 10 µM and above 100%.
The like results for `CC(C)[C@H](CO)NC(c1cnc(NC(=O)C2(c3ccc4c(c3)OCO4)CC2)s1)c1ccccc1F` (stereo partly drawn) [Example 483] were, in that order, below 10 µM and above 100%.
For `CC(C)[C@H](CO)NC(c1cnc(NC(=O)C2(c3ccc4c(c3)OCO4)CC2)s1)c1cc(F)ccc1F` (stereo partly drawn) [Example 484], in that order: below 10 µM and above 100%.
Take `CCC[C@@H](CO)NC(c1cnc(NC(=O)C2(c3ccc4c(c3)OCO4)CC2)s1)c1ccccc1Cl` (stereo partly drawn) [Example 485]: the EC50 was below 10 µM and the Emax was above 100%.
For `CCC(CO)NC(c1cnc(NC(=O)C2(c3ccc4c(c3)OCO4)CC2)s1)c1ccccc1Cl` (stereo not drawn) [Example 486], in that order: below 10 µM and above 100%.
As for `C[C@@H](O)CNC(c1cnc(NC(=O)C2(c3ccc4c(c3)OCO4)CC2)s1)c1ccccc1Cl` (stereo partly drawn) [Example 487], the EC50 is below 10 µM and the Emax was above 100%.
The like results for `CC(C)(C)[C@H](CO)NC(c1cnc(NC(=O)C2(c3ccc4c(c3)OCO4)CC2)s1)c1ccccc1Cl` (stereo partly drawn) [Example 488] were, in that order, below 10 µM and above 100%.
For `CCC[C@H](CO)NC(c1cnc(NC(=O)C2(c3ccc4c(c3)OCO4)CC2)s1)c1ccccc1Cl` (stereo partly drawn) [Example 489], in that order: below 10 µM and above 100%.
Regarding `CC(C)(C)[C@@H](CO)NC(c1cnc(NC(=O)C2(c3ccc4c(c3)OCO4)CC2)s1)c1ccccc1Cl` (stereo partly drawn) [Example 490], the half-maximal effective concentration (EC50) lay within 10 to 25 µM and the Emax lay in the range of 25 to 100%.
With `CCCC[C@@H](CO)NC(c1cnc(NC(=O)C2(c3ccc4c(c3)OCO4)CC2)s1)c1ccccc1Cl` (stereo partly drawn) [Example 491], the concentration for a half-maximal effect (EC50) was below 10 µM and the Emax is above 100%.
`O=C(Nc1ncc(C(c2ccccc2Cl)N2CC[C@@H](O)C2)s1)C1(c2ccc3c(c2)OC(F)(F)O3)CC1` (stereo partly drawn) [Example 492]: the EC50 was below 10 µM and the Emax was above 100%.
Turning to `CC(C)[C@H](CO)NC(c1ccc2c(c1)OC(F)(F)O2)c1cnc(NC(=O)C2(c3ccc4c(c3)OCO4)CC2)s1` (stereo partly drawn) [Example 493], the EC50 was below 10 µM and the Emax is above 100%.
The like results for `O=C(Nc1ncc(C(c2cccc3c2OC(F)(F)O3)N2CCCC2)s1)C1(c2ccc3c(c2)OCO3)CC1` (stereo not drawn) [Example 494] were, in that order, below 10 µM and 25 to 100%.
The like results for `CC(C)C[C@@H](CO)NC(c1cnc(NC(=O)C2(c3ccc4c(c3)OCO4)CC2)s1)c1ccccc1Cl` (stereo partly drawn) [Example 495] were, in that order, below 10 µM and 25 to 100%.
The like results for `O=C(Nc1ncc(C(c2cccc3c2OC(F)(F)O3)N2CC[C@@H](O)C2)s1)C1(c2ccc3c(c2)OCO3)CC1` (stereo partly drawn) [Example 496] were, in that order, below 10 µM and 25 to 100%.
With `CCCC[C@H](CO)NC(c1cnc(NC(=O)C2(c3ccc4c(c3)OCO4)CC2)s1)c1ccccc1Cl` (stereo partly drawn) [Example 497], the concentration giving a half-maximal response (EC50) is below 10 µM and the Emax is above 100%.
Turning to `CC(C)CC(CO)NC(c1cnc(NC(=O)C2(c3ccc4c(c3)OCO4)CC2)s1)c1cccc2c1OC(F)(F)O2` (stereo not drawn) [Example 498], the Emax is above 100%.
Turning to `CC(C)C[C@H](CO)NC(c1cnc(NC(=O)C2(c3ccc4c(c3)OCO4)CC2)s1)c1cccc2c1OC(F)(F)O2` (stereo partly drawn) [Example 498], the EC50 was below 10 µM.
